Where two headings read alike, the source gives them in different places.
Experiments:
[1] = test system: non-transfected and Tm5NM1 stably transfected MEFs; experiment: MTT viability in non-transfected versus Tm5NM1 stably transfected MEFs; type: cell-based, mouse; conditions: 48 hr, FIG. 1
Protocol: FIG. 1: Activity of selected compounds against Tm5NM1/2 transfected mouse embryonic fibroblasts versus non-transfected MEFs.
Compounds 4001, 4010, 4014, 4008 and 4015 were then screened against non-transfected and Tm5NM1 stably transfected MEFs. Briefly, MEFs were transfected with pEYFP-C1/Tm5NM1 constructs using the Amaxa nucleofector apparatus (program A-023) and MEF nucleofector kit 1 (Lonza) according to the manufacturer's instructions. Cell viability assays were also conducted to assess the anti-proliferative effects of the anti-tropomyosin compounds. Briefly, cells (1×10^3/well) were plated (96-well) and treated (48 hr) with anti-tropomyosin compounds and viability measured using 3-(4,5-dimethylthiazol-2-yl)-2, 5-diphenylterazolium bromide MTT. Cell viability was normalized to control (vehicle alone) and dose-response curves, and half maximal effective concentration (EC50) values were determined using Graph Pad Prism 5 (nonlinear regression sigmoidal dose-response variable slope).

[2] = test system: melanoma (SK-Mel-28) cells; experiment: Cell viability assay (MTT, 48 hr); type: cell-based; conditions: Homo sapiens, 48 hr treatment, read-out: IC50 (μM) SKMEL28
Protocol: (§1) Cell viability assays were also conducted to assess the anti-proliferative effects of the anti-tropomyosin compounds 4001-4015. Briefly, cells (1×10^3/well) were plated (96-well) and treated (48 hr) with anti-tropomyosin drug and viability measured using 3-(4,5-dimethylthiazol-2-yl)-2,5-diphenylterazolium bromide MTT. Cell viability was normalized to control (vehicle alone) and dose-response curves, and half maximal effective concentration (EC50) values were determined using Graph Pad Prism 5 (nonlinear regression sigmoidal dose-response variable slope).

[3] = test system: neuroblastoma (SH-EP) cells; experiment: Cell viability assay (MTT, 48 hr); type: cell-based; conditions: 48 hr treatment, read-out: IC50 (μM) SHEP
Protocol: as §1

[4] = test system: PC3 prostate cancer cells; experiment: Anti-proliferative assay, cell-titre luminescent reagent, 72 h (GVK-BIO); type: cell-based
Procedure, shortened: (§2)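 Cells were seeded, attached over 24 h at 37 °C/5% CO2, then exposed 72 h to 30, 3, 0.3, 0.03 μM or 30, 10, 3, 1, 0.3, 0.1 μM compound, with luminescent viability reagent read after 30 min. IC50 came from linear regression of percent-of-control, or EC50 from sigmoidal variable-slope fit against vehicle.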

[5] = test system: DU145 prostate cancer cells; experiment: as above; type: cell-based; conditions: Homo sapiens
Procedure, shortened: as §2

[6] = test system: MDA-MB-231 triple negative breast cancer cells; experiment: as above; type: cell-based; conditions: Homo sapiens
Procedure, shortened: as §2

[7] = test system: A549 non-small cell lung carcinoma cells; experiment: as above; type: cell-based; conditions: Homo sapiens, read-out: IC50/μM Lung (NSLC) A549
Procedure, shortened: as §2

[8] = test system: SK-N-SH neuroblastoma cells; experiment: as above; type: cell-based; conditions: Homo sapiens
Procedure, shortened: as §2

[9] = test system: CaCo2 colorectal cancer cells; experiment: as above; type: cell-based; conditions: Homo sapiens
Procedure, shortened: as §2

SK-Mel-28 melanoma cells = experiment: as above; type: cell-based; conditions: Homo sapiens
Procedure, shortened: as §2

[10] = test system: Tm5NM1-containing actin filaments in SK-N-SH neuroblastoma cells; experiment: Microfilament disruption assay, γ9d staining imaging and filament quantitation; type: cell-based; conditions: 0-40 μM, 24 h, FIG. 3
Protocol: (§3) FIG. 3: Imaging and quantitation of actin filaments in SK—N—SH neuroblastoma cells treated with compound (A) 4093 and (B) 4113. Cells were stained with γ9d (sheep polycolonal, 1:100) followed by 488-conjugated secondary (1:1000) and DAPI to visualize the Tm5NM1 containing filament bundles and the nucleus, respectively. Shown in the top panel is a representative grey scale immunofluorescent image from control (vehicle alone), 5 μM and 10 μM treated cells. […] The coloured lines indicate the detected actin filaments. Also shown is the quantitation of cell number, filament number/cell and filament number/cell area ([…]). […]
(§4) The ability of compounds 4093 and 4113 to disrupt the total actin cytoskeleton (FIG. 2) and to specifically target Tm5NM1-containing actin filaments (FIG. 3) was assessed in vitro using the microfilament disruption assay.
(§5) Briefly, SK-N-SH neuroblastoma cells were seeded at 1800 cells/well in a 384 Perkin Elmer High Content Imaging “View” plate and left to plate down 24 h prior to treatment. […] Images were then exported and changes in the organization and numbers of actin filaments within the cell were quantitated using a linear feature detection algorithm developed by the CSIRO. […] It is these “ridge lines” that correspond to actin filament bundles and allow us to quantitate the number of filaments per cell.

[11] = test system: total actin cytoskeleton in SK-N-SH neuroblastoma cells; experiment: Microfilament disruption assay, 488-Atto-Phallodin imaging and filament quantitation; type: cell-based; conditions: 0-40 μM, 24 h, FIG. 2
Protocol: as §3, with “2:” for “3:”, “488-Atto-Phallodin” for “γ9d (sheep polycolonal, 1:100) followed by 488-conjugated secondary (1:1000)”, “actin” for “Tm5NM1 containing”
as §4, §5

[12] = 30, 3, 0.3 and 0.03 μM, linear regression (Tables 2-4)
[13] = DU-145, 72 h, 30, 3, 0.3 and 0.03 μM, linear regression (Tables 2-4)
[14] = MDA-MB-231, 72 h, 30, 3, 0.3 and 0.03 μM, linear regression (Tables 2-4)
[15] = A549, 72 h, 30, 3, 0.3 and 0.03 μM, linear regression (Tables 2-4)
[16] = SK-N-SH, 30, 3, 0.3 and 0.03 μM, linear regression (Tables 2-4)
[17] = Caco-2, 72 h, 30, 3, 0.3 and 0.03 μM, linear regression (Tables 2-4)
[18] = SK-MEL-28, 72 h, 30, 3, 0.3 and 0.03 μM, linear regression (Tables 2-4)
[19] = 30, 10, 3, 1, 0.3 and 0.1 μM, nonlinear regression (Table 5)
[20] = DU-145, 72 h, 30, 10, 3, 1, 0.3 and 0.1 μM, nonlinear regression (Table 5)
[21] = MDA-MB-231, 72 h, 30, 10, 3, 1, 0.3 and 0.1 μM, nonlinear regression (Table 5)
[22] = A549, 72 h, 30, 10, 3, 1, 0.3 and 0.1 μM, nonlinear regression (Table 5)
[23] = SK-N-SH, 30, 10, 3, 1, 0.3 and 0.1 μM, nonlinear regression (Table 5)
[24] = Caco-2, 72 h, 30, 10, 3, 1, 0.3 and 0.1 μM, nonlinear regression (Table 5)
[25] = SK-MEL-28, 72 h, 30, 10, 3, 1, 0.3 and 0.1 μM, nonlinear regression (Table 5)

SMILES	Selectivity: toxicity against primary MEFs versus MEFs stably transfected with Tm5NM1/2 [1]	IC50 [2] [µM]	IC50 [3] [µM]	IC50 [4, 12] [µM]	IC50 [5, 13] [µM]	IC50 [6, 14] [µM]	IC50 [7, 15] [µM]	IC50 [8, 16] [µM]	IC50 [9, 17] [µM]	IC50 (SK-Mel-28 melanoma cells; [18]) [µM]	IC50 [4, 19] [µM]	IC50 [5, 20] [µM]	IC50 [6, 21] [µM]	IC50 [7, 22] [µM]	IC50 [8, 23] [µM]	IC50 [9, 24] [µM]	IC50 (SK-Mel-28 melanoma cells; [25]) [µM]	Disruption of Tm5NM1-containing actin filaments [10]	Disruption of the total actin cytoskeleton [11]
CN(C)CCCn1ccc2cc(Cc3ccc(C(=O)Nc4ccccc4)cc3)ccc21 [Compound 4001, 4-((1-(3-(dimethylamino)propyl)-1H-indol-5-yl)methyl)-N-phenylbenzamide]	less toxicity noted against primary mouse embryonic fibroblasts (MEFs) compared with MEFs stably transfected with Tm5NM1/2	4.3	4.63	2.8	3.2	3.1	2.7	4.1	3	3.6									
CN(C)CCCn1ccc2cc(Oc3ccc(C(=O)Nc4ccccc4)cc3)ccc21 [Compound 4002, 4-((1-(3-(dimethylamino)propyl)-1H-indol-5-yl)oxy)-N-phenylbenzamide]		7.04	9.24								12.4	37.4	15.7	16.3	3.2	13.1	9.3		
CN(C)CCCn1ccc2cc(Cc3cccc(C(=O)Nc4ccccc4)c3)ccc21 [Compound 4008]		3.4	2.7	4.3	3.3	3.9	3.8	9.3	5.8	3.3									
Cc1c(C)n(CCCN(C)C)c2ccc(-c3cnn(Cc4ccccc4)c3)cc12 [Compound 4009, 3-(5-(1-benzyl-1H-pyrazol-4-yl)-2,3-dimethyl-1H-indol-1-yl)-N,N-dimethylpropan-1-amine]		5.4	3																
Cc1c(C)n(CCCN(C)C)c2ccc(Nc3ccc(C(=O)Nc4ccccc4)cc3)cc12 [Compound 4010, 4-((1-(3-(dimethylamino)propyl)-2,3-dimethyl-1H-indol-5-yl)amino)-N-phenylbenzamide]	less toxicity noted against primary mouse embryonic fibroblasts (MEFs) compared with MEFs stably transfected with Tm5NM1/2	3.4	6.4	4	3.4	2.6	2.8	3.6	3.5	3.4									
Cc1c(C)n(CCCN(C)C)c2ccc(Nc3cccc(C(=O)Nc4ccccc4)c3)cc12 [Compound 4011, 3-((1-(3-(dimethylamino)propyl)-2,3-dimethyl-1H-indol-5-yl)amino)-N-phenylbenzamide]		9.7	8.7	4.3	3.3	2.5	3	2.5	2.8	6.1									
CN(C)CCCn1ccc2cc(Nc3cccc(C(=O)Nc4ccccc4)c3)ccc21 [Compound 4013, 3-((1-(3-(dimethylamino)propyl)-1H-indol-5-yl)amino)-N-phenylbenzamide]		15.8	14.5	> 30	> 30	3.7	7.6	4.2	> 30	9.2									
CN(C)CCCn1ccc2cc(Oc3cccc(C(=O)Nc4ccccc4)c3)ccc21 [Compound 4014, 3-((1-(3-(dimethylamino)propyl)-1H-indol-5-yl)oxy)-N-phenylbenzamide]	less toxicity noted against primary mouse embryonic fibroblasts (MEFs) compared with MEFs stably transfected with Tm5NM1/2	4	4.3	3.7	3.6	2.5	2.9	3	3.9	3.2									
Cc1c(C)n(CCCN2CCN(C)CC2)c2ccc(CN3CCN(CCc4ccc5c(c4)OCO5)CC3)cc12 [Compound 4113, 5-((4-(2-(benzo[d][1,3]dioxol-5-yl)ethyl)piperazin-1-yl)methyl)-2,3-dimethyl-1-(3-(4-methylpiperazin-1-yl)propyl)-1H-indole]											11.4	5.4	2.8	5.2	1.7	4.6	0.9	disrupt both the total actin cytoskeleton and Tm5NM1-containing actin filaments in a dose-dependent manner	disrupt both the total actin cytoskeleton and Tm5NM1-containing actin filaments in a dose-dependent manner

From patent publication US20170166555A1, “FUNCTIONALISED AND SUBSTITUTED INDOLES AS ANTI-CANCER AGENTS” (Novogen Limited, priority 2013, published 2017)
